# Measurements taken from US20220324909A1, “THERAPEUTIC PEPTIDES” (COHBAR, INC., priority 2019, published 2022).
# Non-standard residues stand in square brackets, D forms with d. No end group written: not given here.
# What was measured:
# [1] = tested on: Male DIO mice; assay: Metabolic parameters in diet induced obese (DIO) mice, Example 16; format: in vivo, mouse; details: 5 mg/kg twice daily intraperitoneal, 10 days, N = 8
# Experimental: Male C57BL/6 mice were maintained on a high fat diet for 18 weeks to develop diet induced obesity. Animals were randomized to treatment groups based on blood glucose levels and body weight. The peptides of the invention were administered to groups of male DIO mice twice daily by intraperitoneal injection at a dose of 5 mg/kg/dose for 10 days (N=8 animals per treatment group). An additional group of male DIO mice (n=8) received vehicle (water) alone administered twice daily by intraperitoneal injection. Body weight, blood glucose levels and food intake were monitored. Body mass distribution (fat vs lean) was determined by quantitative whole body NMR prior to dosing and at the end of dosing.
# [2] = tested on: H4-IIE cells; assay: Glucose production in cultured H4-IIE cells and insulin dependence; format: cell-based, rat; details: 24 h; for Glucose Production, Percent of Control Activity No Insulin: peptide 10 μM alone, relative to untreated cells; for Glucose Production, Percent of Control Activity With Insulin: peptide 10 μM with 800 μM insulin, relative to insulin treated cells
# Outline: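 Rat hepatoma cells incubated 24 h with peptides; glucose released into conditioned medium measured colorimetrically at 570 nm. Untreated cells serve as maximal-production reference, with insulin at […] as a modest inhibitor. Values are means of 2-4 independent experiments run in triplicate.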
# [3] = tested on: C2C12 cells; assay: Cellular ROS levels induced by TBHP in C2C12 cells (DCFDA); format: cell-based, mouse; details: peptide 10 μM 18-20 hours, then TBHP 100 μM 1 hour; relative to TBHP control
# Experimental: The protective or synergistic effect of the peptides on cellular levels of reactive oxygen species (ROS) induced by oxidative stress can be assessed using an assay of ROS in cultured cells such as mouse myoblasts exposed to a suitable oxidative stress. Peptides were initially prepared as 10 mM stock in DMSO, diluted to 1 mM in H2O, and added at a final concentration of 10 μM (0.1% DMSO). […] TBHP was used at final concentration of 100 μM. Sulforaphane at final concentration of 10 μM was used as a protective control against TBHP induced ROS production. […] C2C12 cells were grown in DMEM supplemented with 20% FBS with 100 IU/ml penicillin and 100 μg/ml streptomycin. […] C2C12 cells were seeded at 7,500 cells per well on 96-well plates. […] After 18-20 hours of incubation the cells were loaded with DCFDA for 45 min. TBHP at 100 μM was then added to the appropriate wells for 1 hour. ROS activity was determined using a DCFDA Cellular ROS Detection Assay kit (Abcam, Cambridge, Mass.) according to the manufacturer's instructions. Fluorescence in each sample well on the plate was measured using a Cytation 3 plate reader at Ex/Em=485/535 nm (BioTek, Winooski, Vt.). Activity was calculated relative to TBHP control. The relative standard deviation of the sulforaphane control was <20%. The ROS level produced by the sulforaphane control in the presence of TBHP was 52% of the TBHP control.
# [4] = tested on: 3T3-L1 mouse adipocytes; assay: Free fatty acid levels in 3T3-L1 mouse adipocytes (Example 12, 10 μM); format: cell-based; details: peptide 10 μM, 20-22 h then 3 h with isoproterenol 1 nM
# Experimental: The effect of the peptides on fatty acid metabolism can be assessed using an assay of free fatty acid levels in cultured cells such as mouse adipocytes. Peptides were initially prepared as 10 mM stock in DMSO, diluted to 1 mM in H2O, and used at a final concentration of 10 μM (0.1% DMSO). […] Insulin at 100 nM was added to control wells.
# [5] = target: T1, Apelin Receptor (APJ) (Homo sapiens, UniProt P35414); assay: β-Arrestin recruitment in CHO-K1 AGTRL1 β-Arrestin cells (PathHunter); format: cell-based; set-up: host or cells: CHO-K1 AGTRL1 β-Arrestin cell line; details: peptide 10 μM, 90 min; 500 nM Apelin-13 response = 100%
# T1 sequence (P35414 1-380): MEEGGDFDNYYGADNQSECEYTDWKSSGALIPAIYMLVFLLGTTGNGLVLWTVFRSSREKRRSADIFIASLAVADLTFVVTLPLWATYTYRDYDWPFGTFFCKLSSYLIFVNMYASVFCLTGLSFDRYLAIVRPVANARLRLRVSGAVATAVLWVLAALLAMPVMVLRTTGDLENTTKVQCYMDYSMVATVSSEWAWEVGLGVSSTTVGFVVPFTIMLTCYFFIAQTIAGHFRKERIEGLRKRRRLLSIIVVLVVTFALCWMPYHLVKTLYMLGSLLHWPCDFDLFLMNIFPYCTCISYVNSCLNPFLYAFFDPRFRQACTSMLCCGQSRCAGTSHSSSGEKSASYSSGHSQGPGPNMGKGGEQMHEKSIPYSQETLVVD
# [6] = target: T1, Apelin Receptor (APJ); assay: cAMP levels in CHO-K1 AGTRL1 Gi cells, single concentration (HitHunter); format: cell-based; set-up: host or cells: CHO-K1 AGTRL1 Gi cells; details: peptide 10 μM with 10 μM forskolin, 30 min; 500 nM Pyr-Apelin-13 response = 100%
"β-Arrestin Recruitment, Percent of Apelin-13 Control Activity [5] [%]","cAMP Levels, Percent of Pyr-Apelin-13 Control Activity [6] [%]",Compound,Difference from Vehicle Control: Decrease from Baseline in Blood Glucose [1] [mg/dL],Difference from Vehicle Control: Decrease from Baseline in Body Weight [1] [%],Difference from Vehicle Control: Decrease from Baseline in Fat Mass [1] [g],"Glucose Production, Percent of Control Activity No Insulin [2] [%]","Glucose Production, Percent of Control Activity With Insulin [2] [%]","Cellular ROS Levels Induced by TBHP, Percent of Control [3] [%]","Free Fatty Acid Levels, Percent of Isoproterenol Control Activity [4] [%]"
–,–,8 (RRMMGMVFQCLCG[dA]; cysteine pairing not given here) [compound 8],-16.9,−8.01,-3.88,78.9,102.8,102.1,34.7
–,–,10 (RRMMGMVYQCLCG[dA]; cysteine pairing not given here) [compound 10],-8.37,−5.47,-2.16,92.2,38.2,102.3,24.9
–,–,11 (RRMMGMVAQCLCGA) [compound 11],-4.91,−4.05,-2.34,96.6,57.5,100.6,59.2
–,–,12 (RRMMGMVEQCLCG[dA]; cysteine pairing not given here) [compound 12],-6.75,−2.89,-1.73,96.4,44.8,105,51.3
–,–,13 (RRMMGMVFQELCG[dA]) [compound 13],–,–,–,100.9,68,106.8,66.0
–,–,14 (RRMMGMVFQCLEG[dA]) [compound 14],–,–,–,104.4,159.6,105.1,46.5
–,–,16 (RRMMGMVFQCLSG[dA]) [compound 16],–,–,–,99.8,56.8,106.6,58.8
–,–,17 (RRMMGMVFQSLSG[dA]) [compound 17],–,–,–,101.7,95.5,113.6,77.9
–,–,18 (RRXXGXVFQCLCGA; (3)..(3) Xaa is Norleucine; (4)..(4) Xaa is Norleucine; (6)..(6) Xaa is Norleucine; (14)..(14) D-Ala) [compound 18],–,–,–,103.1,140.4,109.4,77.3
–,–,19 (RRMVFQCLCG[dA]; cysteine pairing not given here) [compound 19],–,–,–,100.8,68.9,92,31.0
91,109,CSCC[C@H](NC(=O)CNC(=O)[C@H](CCSC)NC(=O)[C@H](CCSC)NC(=O)[C@H](CCCNC(=N)N)NC(=O)[C@H](CCCNC(=N)N)NC(=O)[C@@H](N)CCSC)C(=O)N[C@H](C(=O)N[C@@H](Cc1ccccc1)C(=O)N[C@@H](CCC(N)=O)C(=O)N[C@@H](CS)C(=O)N[C@@H](CC(C)C)C(=O)N[C@@H](CS)C(=O)NCC(=O)N[C@@H](CC(C)C)C(=O)O)C(C)C [compound 7],-20.0,−3.19,-0.84,54.2,64.2,98.6,34.6
40,105,CSCC[C@H](NC(=O)CNC(=O)[C@H](CCSC)NC(=O)[C@H](CCSC)NC(=O)[C@H](CCCNC(=N)N)NC(=O)[C@@H](N)CCCNC(=N)N)C(=O)N[C@H](C(=O)N[C@@H](Cc1ccccc1)C(=O)N[C@@H](CCC(N)=O)C(=O)N[C@@H](CO)C(=O)N[C@@H](CC(C)C)C(=O)N[C@@H](CS)C(=O)NCC(=O)N[C@H](C)C(=O)O)C(C)C [compound 15],–,–,–,101.4,63.9,105.9,90.8
